Patent US20250034130A1, “Crystal Form of Tolebrutinib, Preparation Method Therefor and Use Thereof” (Principia Biopharma Inc., priority 2021, published 2025)
Entries after “also recorded” stand apart in the source; their conditions may differ.

How the values were obtained:
Assay type in all cases: physicochemical
[1] = Physical and chemical stability on storage in opened packages (purity by UPLC, solid form by XRPD)
Protocol: X-ray powder diffraction patterns in the present disclosure were acquired by a Bruker X-ray powder diffractometer. The parameters of the X-ray powder diffraction method of the present disclosure are as follows: • X-Ray: Cu, Kα • Kα1 (Å): 1.54060; Kα2 (Å): 1.54439 • Kα2/Kα1 intensity ratio: 0.50
(§1) The related substance in the present disclosure was detected by UPLC and the parameters are shown below.
Said “room temperature” is not a specific temperature, but a temperature range of 10-30° C. Said “open packaged” is putting the sample into a glass vial, covering the vial with aluminum foil, and punching 5-10 holes on the foil.
(§2) Form CSII of the present disclosure and the prior art amorphous form were weighed and stored under 25° C./60% RH, 40° C./75% RH and 60° C./75% RH conditions, in opened packages, respectively. The purity and solid form were determined by UPLC and XRPD. The results are listed in Table 3, and the overlaid XRPD patterns of Form CSII before and after storage for stability evaluation are shown in FIG. 4.
as §2, with “CSIII” for “CSII”, “10,” for “3,”, “9.” for “4.”
as §2, with “CSIV” for “CSII”, “C./60%” for “C./60% RH, 40° C./75%”, “40°” for “60°”, “16,” for “3,”, “15.” for “4.”

[2] = Stability at high temperature (80° C., 2 days, purity by UPLC); conditions: for Chemical purity (in words) / Purity change: 2 days; for Purity change: glass vial with cap
Protocol: as §1
Certain amounts of Form CSII of the present disclosure and the prior art amorphous form were weighted and stored at 80° C. for 2 days, and the purities of the solids before and after storage were determined by UPLC, the results are as shown in Table 4.
Certain amounts of Form CSIII of the present disclosure and the prior art amorphous form were weighted and stored at 80° C. for 2 days, and the purities of the solids before and after storage were determined by UPLC, the results are as shown in Table 11.
Certain amounts of Form CSIV of the present disclosure and the prior art amorphous form were stored at 80° C. for 2 days, and the purities of the solids before and after storage were determined by UPLC, the results are as shown in Table 17.

[3] = Light stability (Chinese Pharmacopoeia method, purity by UPLC); conditions: light not less than 1.2×10^6 lux-hr, near-UV not less than 200 W-hr/m^2; for Purity change: 1 week; for Chemical purity (in words): about 1 week
Text: as §1
(§3) Certain amounts of Form CSII of the present disclosure and the prior art amorphous form were weighted and stored for about 1 week, in accordance with the method of the Chinese Pharmacopoeia, under the condition that the total illumination of the light source was not less than 1.2×106 lux-hr and the energy of the near-ultraviolet lamp was not less than 200 W-hr/m^2, the purities of the solids before and after storage were measured by UPLC and the results are shown in Table 5.
as §3, with “CSIII” for “CSII”, “1.2×10^6” for “1.2×106”, “12.” for “5.”
as §3, with “CSIV” for “CSII”, “1.2×10^6” for “1.2×106”, “18.” for “5.”

[4] = Hygroscopicity by DVS (0% RH-95% RH-0% RH at 25° C.); conditions: for Weight gain relative to that of the prior art / Weight gain at 80% RH: 80% RH; for Weight gain at 80% RH: DVS; for Weight gain at 80% RH / Hygroscopicity class: 25° C.; for Crystalline state after the DVS test: XRPD before and after DVS; for Hygroscopicity class: weight gain at 80% RH
Protocol: DVS was measured via an SMS (Surface Measurement Systems Ltd.) intrinsic DVS instrument.
Parameters for DVS method are as follows: • Temperature: 25° C. • Gas and flow rate: nitrogen, 200 mL/min • RH range: 0% RH to 95% RH • ^1H NMR were collected from a Bruker Avance II DMX 400M HZ NMR spectrometer. 1-5 mg of sample was weighed and dissolved in 0.5 mL of deuterated dimethyl sulfoxide to obtain a solution with a concentration of 2-10 mg/mL.
Certain amounts of Form CSII of the present disclosure and the prior art amorphous form were sampled for hygroscopicity tests using DVS instrument. The weight change at each relative humidity was recorded during the cycle of 0% RH-95% RH-0% RH at 25° C.
Description and definition of hygroscopicity (general notice 9103 drug hygroscopicity test guidelines in 2020 edition of Chinese Pharmacopoeia, experimental condition: 25±1° C., 80±2% RH):
Certain amounts of Form CSIII of the present disclosure and the prior art amorphous form were sampled for hygroscopicity tests using DVS instrument. The weight change at each relative humidity was recorded during the cycle of 0% RH-95% RH-0% RH at 25° C.
Certain amounts of Form CSIV of the present disclosure and the prior art amorphous form were sampled for hygroscopicity tests using DVS instrument. The weight change at each relative humidity was recorded during the cycle of 0% RH-95% RH-0% RH at 25° C.

[5] = Grinding stability (manual grinding 5 minutes in a mortar, XRPD); conditions: ground manually 5 minutes in a mortar
Protocol: Form CSII was grounded manually for 5 minutes in a mortar. XRPD was tested before and after the grinding.
Form CSIII was grounded manually for 5 minutes in a mortar. XRPD was tested before and after the grinding.
Form CSIV was grounded manually for 5 minutes in a mortar. XRPD was tested before and after the grinding.

[6] = Stability of crystalline form in tablet formulation process (XRPD before and after); conditions: tablets per Table 7 and Table 8, XRPD
Protocol: According to the formulation and process in Table 7 and Table 8, the tablets were prepared with an appropriate amount of Form CSII of the present disclosure. XRPD was tested before and after formulation.
According to the formulation and process in Table 7 and Table 8, the tablets were prepared with an appropriate amount of Form CSIII of the present disclosure. XRPD was tested before and after formulation.
According to the formulation and process in Table 7 and Table 8, the tablets were prepared with an appropriate amount of Form CSIV of the present disclosure. XRPD was tested before and after formulation.

[7] = 25° C./60% RH, 6 months, open package
[8] = 40° C./75% RH, 6 months, open package
[9] = 60° C./75% RH, 1 month, open package
[10] = 25° C./60% RH, 2 months, open package
[11] = 40° C./75% RH, 2 months, open package

For `C=CC(=O)N1CCC[C@@H](n2c(=O)n(-c3ccc(Oc4ccccc4)cc3)c3c(N)nccc32)C1` [Form CSIII, (R)-1-(1-acryloylpiperidin-3-yl)-4-amino-3-(4-phenoxyphenyl)-1H-imidazo[4,5-c] pyridin-2(3H)-one], the “Chemical purity during storage” value ([1]; 25° C./60% RH) was “above 99.9%”, the “Time for which the crystalline state doesn't change / form is stable” value ([1]; 25° C./60% RH) was “at least 6 months” and the Purity [1, 7] was 99.93%. For the same compound, the Purity change [1, 7] was “+0.02%”, the Solid form [1, 7] was “Form CSIII” and the “The number of the purities exceeding the qualification thresholds” value (shortened to “The number”) [1, 7] was 0. The “Time for which the crystalline state doesn't change / form is stable” value ([1]; 40° C./75% RH) was “at least 6 months”, the “Chemical purity during storing” value ([1]; 40° C./75% RH and 60° C./75% RH) was “above 99.8%” and the Purity [1, 8] was 99.91%. The Purity change [1, 8] was 0%, the Solid form [1, 8] was “Form CSIII” and the “The number” value [1, 8] was 0. The “Time for which the crystalline state doesn't change” value ([1]; 60° C./75% RH) was “at least 1 month”, the “Solid form and purity after storage” value ([1]; 60° C./75% RH, 1 month) was “remained basically unchanged” and the Purity [1, 9] was 99.86%. The Purity change [1, 9] was −0.05%, the Solid form [1, 9] was “Form CSIII” and the “The number” value [1, 9] was 0. For the same compound, the Purity ([1]; Initial) was 99.91%, the Solid form ([1]; Initial) was “Form CSIII” and the “The number” value ([1]; Initial, ICH Q3A (R2) thresholds) was 0. For the same compound, the “Impurity content versus qualification threshold” value ([1]; throughout the stability investigation processes) was “did not exceed the qualification thresholds; also recorded: did not exceed the qualificated threshold”, the “Time for which chemical purity remains substantially unchanged” value [2] was “at least 2 days” and the “Chemical purity (in words)” value [2] was “basically remained unchanged”. For the same compound, the Purity change [2] was “+0.04%”, the Purity change [3] was “+0.02%” and the “Chemical purity (in words)” value [3] was “basically remained unchanged”. The “Time for which there is no change in the purity” value [3] was “at least 1 week”, the “Weight gain relative to that of the prior art” value [4] was “⅙” and the “Weight gain at 80% RH” value [4] was 0.66%. For the same compound, the “Crystalline state after the DVS test” value [4] was “remained unchanged”, the Hygroscopicity class [4] was “slightly hygroscopic” and the “Crystalline state after grinding” value [5] was “remains unchanged”. The “Crystalline state after formulation process (mixed with excipients, tableted)” value [6] was “remained unchanged; also recorded: did not change”.

For `C=CC(=O)N1CCC[C@@H](n2c(=O)n(-c3ccc(Oc4ccccc4)cc3)c3c(N)nccc32)C1` [Form CSIV, (R)-1-(1-acryloylpiperidin-3-yl)-4-amino-3-(4-phenoxyphenyl)-1H-imidazo[4,5-c] pyridin-2(3H)-one], the “Chemical purity during storage” value ([1]; 25° C./60% RH) was “above 99.7%”, the “Time for which the crystalline state doesn't change / form is stable” value ([1]; 25° C./60% RH) was “at least 2 months” and the Purity [1, 10] was 99.74%. The Purity change [1, 10] was 0.00%, the Solid form [1, 10] was “Form CSIV” and the “Time for which the crystalline state doesn't change / form is stable” value ([1]; 40° C./75% RH) was “at least 2 months”. For the same compound, the Purity [1, 11] was 99.75%, the Purity change [1, 11] was “+0.01%” and the Solid form [1, 11] was “Form CSIV”. For the same compound, the Purity ([1]; Initial) was 99.74%, the Solid form ([1]; Initial) was “Form CSIV” and the “Chemical purity (in words)” value [2] was “basically remained unchanged”. For the same compound, the Purity change [2] was “+0.03%”, the Purity change [3] was “+0.06%” and the “Chemical purity (in words)” value [3] was “basically remained unchanged”. For the same compound, the “Weight gain relative to that of the prior art” value [4] was 1/15, the “Weight gain at 80% RH” value [4] was 0.24% and the “Crystalline state after the DVS test” value [4] was “remained unchanged”. For the same compound, the Hygroscopicity class [4] was “slightly hygroscopic”, the “Crystalline state after grinding” value [5] was “remains unchanged” and the “Crystalline state after formulation process (mixed with excipients, tableted)” value [6] was “remained unchanged; also recorded: did not change”.
